From ChEMBL document CHEMBL1201862, “PubChem BioAssay data set” (2004)
Activity calls are given as the source filed them.

Assays:
[1] = molecular target: T1, Serine/threonine-protein phosphatase (Candida dubliniensis (strain CD36 / CBS 7987 / NCPF 3949 / NRRLY-17841) (Yeast), UniProt B9W6M3); test: Fluorescence Cell-Based Secondary Assay to Identify Inhibitors of Calcineurin. [Related pubchem assays (depositor defined):AID1979, AID2007]; format: functional
T1 sequence (B9W6M3 whole entry): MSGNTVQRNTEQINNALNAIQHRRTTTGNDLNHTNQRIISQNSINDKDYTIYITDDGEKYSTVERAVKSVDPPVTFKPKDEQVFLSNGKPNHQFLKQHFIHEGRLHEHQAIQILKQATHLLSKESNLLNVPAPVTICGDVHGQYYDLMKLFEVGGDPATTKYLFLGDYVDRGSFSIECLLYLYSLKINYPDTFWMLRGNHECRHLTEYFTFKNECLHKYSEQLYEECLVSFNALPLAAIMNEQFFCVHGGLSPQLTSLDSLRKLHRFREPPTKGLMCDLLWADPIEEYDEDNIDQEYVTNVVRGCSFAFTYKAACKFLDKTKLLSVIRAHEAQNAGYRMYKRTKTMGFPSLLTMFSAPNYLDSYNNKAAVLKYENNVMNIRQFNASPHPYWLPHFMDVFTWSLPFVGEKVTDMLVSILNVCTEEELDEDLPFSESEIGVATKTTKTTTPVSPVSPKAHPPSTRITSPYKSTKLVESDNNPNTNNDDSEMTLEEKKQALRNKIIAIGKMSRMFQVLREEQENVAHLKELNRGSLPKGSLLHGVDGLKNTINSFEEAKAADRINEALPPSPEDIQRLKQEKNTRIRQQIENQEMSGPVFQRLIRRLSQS

[2] = molecular target: Lysine-specific demethylase 4A (Homo sapiens, UniProt O75164); test: JMJD2A histone demethylase inhibitors, dose response, selectivity assay for GASC-1 inhibitor project, biochemical, DELFIA europium, cherry-picked samples (AID 488840)
Fatty acid synthase [3] = molecular target: T2, Fatty acid synthase (Homo sapiens, UniProt P49327); test: FAS thioesterase domain inhibitors, dose response, biochemical, endpoint fluorescence intensity, uHTS hits (AID 624327); format: functional;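 further: fluorescence from hydrolysis of an O-methyl fluorescein acyl ester substrate by the enzyme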
Fatty acid synthase [4] = molecular target: T2, Fatty acid synthase; test: FAS thioesterase domain inhibitors, dose response, biochemical, kinetic fluorescence intensity (AID 624326); format: functional;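 further: rate of fluorescence rise from hydrolysis of a fluorogenic O-methyl fluorescein ester substrate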
[5] = molecular target: T3, Lysine-specific demethylase 4C (Homo sapiens, UniProt Q9H3R0); test: GASC-1 (JMJD2C) histone demethylase inhibitors, dose response, biochemical, DELFIA europium, cherry-picked samples (AID 488835); format: functional
T3 sequence (Q9H3R0 whole entry): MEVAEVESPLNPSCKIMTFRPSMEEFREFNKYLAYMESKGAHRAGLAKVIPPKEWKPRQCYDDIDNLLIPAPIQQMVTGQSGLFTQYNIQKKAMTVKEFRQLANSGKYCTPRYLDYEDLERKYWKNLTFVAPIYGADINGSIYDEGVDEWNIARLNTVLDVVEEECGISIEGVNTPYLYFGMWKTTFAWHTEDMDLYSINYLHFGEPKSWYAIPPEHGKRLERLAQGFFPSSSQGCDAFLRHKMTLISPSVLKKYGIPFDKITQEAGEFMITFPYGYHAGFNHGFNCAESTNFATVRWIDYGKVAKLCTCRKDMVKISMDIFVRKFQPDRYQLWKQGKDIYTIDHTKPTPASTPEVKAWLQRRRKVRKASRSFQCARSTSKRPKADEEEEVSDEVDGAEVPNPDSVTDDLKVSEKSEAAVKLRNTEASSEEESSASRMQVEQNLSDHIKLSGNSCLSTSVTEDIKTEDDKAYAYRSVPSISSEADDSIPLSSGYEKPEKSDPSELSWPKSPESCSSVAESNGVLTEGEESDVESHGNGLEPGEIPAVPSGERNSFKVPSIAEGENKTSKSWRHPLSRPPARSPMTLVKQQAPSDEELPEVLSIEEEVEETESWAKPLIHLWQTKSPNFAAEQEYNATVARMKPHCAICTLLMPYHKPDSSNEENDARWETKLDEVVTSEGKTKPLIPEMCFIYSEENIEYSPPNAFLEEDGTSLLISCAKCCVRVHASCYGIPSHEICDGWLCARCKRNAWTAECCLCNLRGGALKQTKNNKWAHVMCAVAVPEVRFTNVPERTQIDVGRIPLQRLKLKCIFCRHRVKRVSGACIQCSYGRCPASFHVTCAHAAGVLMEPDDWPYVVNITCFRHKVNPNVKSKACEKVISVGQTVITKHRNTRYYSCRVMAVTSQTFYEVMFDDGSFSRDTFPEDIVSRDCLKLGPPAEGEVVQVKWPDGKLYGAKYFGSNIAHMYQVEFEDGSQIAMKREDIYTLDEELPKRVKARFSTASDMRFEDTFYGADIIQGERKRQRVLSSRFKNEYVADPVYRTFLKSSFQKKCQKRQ

[6] = molecular target: T4, Dual specificity protein phosphatase 3 (Homo sapiens, UniProt P51452); test: VHR1 phosphatase inhibitors, primary screen, biochemical, absorbance, uHTS (AID 1654)
[7] = molecular target: T5, Dual specificity protein phosphatase 6 (Rattus norvegicus, UniProt Q64346); test: MKP-3 phosphatase inhibitors, primary screen, biochemical, rat enzyme, in vitro (AID 425)
T5 sequence (Q64346 whole entry): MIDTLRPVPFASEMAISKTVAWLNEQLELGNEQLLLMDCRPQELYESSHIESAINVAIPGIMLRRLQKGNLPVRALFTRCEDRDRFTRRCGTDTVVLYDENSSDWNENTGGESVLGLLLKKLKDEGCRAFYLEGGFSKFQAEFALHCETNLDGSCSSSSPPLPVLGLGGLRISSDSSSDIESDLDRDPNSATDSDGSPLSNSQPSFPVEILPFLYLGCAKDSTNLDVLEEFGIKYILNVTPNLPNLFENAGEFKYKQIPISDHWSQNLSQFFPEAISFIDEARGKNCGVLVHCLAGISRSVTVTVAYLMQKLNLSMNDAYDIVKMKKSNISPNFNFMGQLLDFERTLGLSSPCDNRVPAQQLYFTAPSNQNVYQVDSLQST

[8] = molecular target: T6, Voltage-gated N-type calcium channel alpha-1B subunit/Amyloid beta A4 precursor protein-binding family A member 1 (Homo sapiens, UniProt Q00975+Q02410); format: protein assay
[9] = molecular target: T4, Dual specificity protein phosphatase 3; test: VHR1 phosphatase inhibitors, biochemical (AID 1878)
[10] = molecular target: T6, Voltage-gated N-type calcium channel alpha-1B subunit/Amyloid beta A4 precursor protein-binding family A member 1; format: protein assay; remark: listed apart in the source
Cytochrome P450 2D6 = Cytochrome P450 2D6 (Homo sapiens, UniProt P10635);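 further: CYP2D6 member of a cytochrome P450 panel assay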
[11] = molecular target: T7, Kappa-type opioid receptor (Homo sapiens, UniProt P41145); format: functional
[12] = molecular target: T8, Delta-type opioid receptor (Homo sapiens, UniProt P41143); test: HTS Image-Based Screen for Antagonists of the DOR Receptor. [Related pubchem assays (depositor defined):AID1777, AID1785, AID1786, AID2133]; format: functional
H9c2 = test: cells; format: functional, cell-based; details: Rattus norvegicus, H9c2, Myocardium;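 further: confirmatory concentration-response retest of ultra-high-throughput screening hits for modulation of myocardial damage; cell death induced by hydrogen peroxide oxidative stress; compound pretreatment for 60 min then peroxide exposure for 2 h; potency is for protecting the cells against peroxide damage rather than for killing them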
Vero [13] = test: cells; format: functional; details: Chlorocebus sabaeus
Vero [14] = test: cells; format: functional, cell-based; details: Chlorocebus sabaeus
[15] = molecular target: T7, Kappa-type opioid receptor; format: functional; remark: listed apart in the source
[16] = molecular target: T8, Delta-type opioid receptor; test: HTS Image-Based Screen for Agonists of the DOR Receptor. [Related pubchem assays (depositor defined):AID1777, AID1786, AID2133]; format: functional
Beta-galactosidase = Beta-galactosidase (Escherichia coli, UniProt Q8VNN2); format: functional
Streptococcus = test: Group A Streptococcus viability loss, dose response, counter-screen for streptokinase expression inhibitor project, luminescence, BacTiterGlo (AID 1915); format: functional, organism-based;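 further: potency for reduction of bacterial viability or growth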
[17] = cytotoxicity toward NIH3T3 fibroblasts, dose response, counter-screen, cell-based, ATP luminescence, mouse fibroblasts (AID 2010); format: functional;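 further: cells exposed to compound for about 90 hours before reading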
Mu-type opioid receptor = Mu-type opioid receptor (Homo sapiens, UniProt P35372); test: HTS Image-Based Screen for Agonists of the MOR Receptor. [Related pubchem assays (depositor defined):AID1777, AID1785, AID1786, AID2133]; format: functional;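 further: imaging of beta-arrestin GFP recruitment into spots after receptor activation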
[18] = inhibitors of intracellular T. cruzi replication, confirmation, NIH3T3 host cells, beta-gal luminescence (AID 2044); format: functional, cell-based;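 further: intracellular parasites grown in NIH/3T3 mouse fibroblasts as host cells; luminescent beta-galactosidase reporter signal from transgenic T. cruzi replicating inside host cells; inhibitors lower the luminescence signal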
[19] = system: Streptococcus sp. 'group A'; test: growth inhibition of control SK(-) GAS strain, dose response, counter-screen for streptokinase expression inhibitor project, luminescence, kanamycin, BacTiterGlo, confirmation (AID 1900); format: functional, organism-based
Cannabinoid receptor 1 = Cannabinoid receptor 1 (Homo sapiens, UniProt P21554); test: SAR analysis of antagonists of the Cannabinoid Receptor 1 using an Image-Based Assay. [Related pubchem assays (depositor defined):AID1961, AID1965]; format: functional
Cannabinoid receptor 2 [20] = molecular target: T9, Cannabinoid receptor 2 (Homo sapiens, UniProt P34972); test: SAR analysis of agonists of the Cannabinoid Receptor 2 using an Image-Based Assay - Set 2. [Related pubchem assays (depositor defined):AID1961, AID1965]; format: functional
[21] = molecular target: G-protein coupled receptor 55 (Homo sapiens, UniProt Q9Y2T6); test: SAR analysis of selective Agonists of GPR55 using an Image-Based Assay. [Related pubchem assays (depositor defined):AID1961, AID1965]; format: functional
Cannabinoid receptor 2 [22] = molecular target: T9, Cannabinoid receptor 2; test: SAR analysis of antagonists of the Cannabinoid Receptor 2 using an Image-Based Assay - Set 2. [Related pubchem assays (depositor defined):AID1961, AID1965]; format: functional
[23] = molecular target: Nucleotide-binding oligomerization domain-containing protein 1 (Homo sapiens, UniProt Q9Y239); test: SAR analysis of compounds that inhibit NOD1 - Set 3. [Related pubchem assays (depositor defined):AID1566, AID1575, AID1578, AID1849, AID1852, AID2333, AID2335, AID2466]; format: functional
[24] = molecular target: Nucleotide-binding oligomerization domain-containing protein 2 (Homo sapiens, UniProt Q9HC29); test: NOD2 signaling inhibitors, analog potency, SAR follow-up, cell-based, set 3 (AID 2799); format: functional
Tumor necrosis factor = Tumor necrosis factor (Homo sapiens, UniProt P01375); test: TNFa-triggered NF-kB activation inhibitors, SAR follow-up, cell-based, set 3 (AID 2801); format: functional
HEK293 = test: SAR analysis of compounds that are cytotoxic to HEK293 - Set 3. [Related pubchem assays (depositor defined):AID1575, AID1578, AID1848, AID1849, AID2001, AID2333, AID2334, AID2335, AID2337, AID2469]; format: functional, cell-based; details: Homo sapiens
Cytochrome P450 2C9 = Cytochrome P450 2C9 (Homo sapiens, UniProt P11712)
Cytochrome P450 1A2 = molecular target: T10, Cytochrome P450 1A2 (Homo sapiens, UniProt P05177);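 further: PubChem cytochrome P450 panel assay, CYP1A2 panel member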
T10 sequence (P05177 whole entry): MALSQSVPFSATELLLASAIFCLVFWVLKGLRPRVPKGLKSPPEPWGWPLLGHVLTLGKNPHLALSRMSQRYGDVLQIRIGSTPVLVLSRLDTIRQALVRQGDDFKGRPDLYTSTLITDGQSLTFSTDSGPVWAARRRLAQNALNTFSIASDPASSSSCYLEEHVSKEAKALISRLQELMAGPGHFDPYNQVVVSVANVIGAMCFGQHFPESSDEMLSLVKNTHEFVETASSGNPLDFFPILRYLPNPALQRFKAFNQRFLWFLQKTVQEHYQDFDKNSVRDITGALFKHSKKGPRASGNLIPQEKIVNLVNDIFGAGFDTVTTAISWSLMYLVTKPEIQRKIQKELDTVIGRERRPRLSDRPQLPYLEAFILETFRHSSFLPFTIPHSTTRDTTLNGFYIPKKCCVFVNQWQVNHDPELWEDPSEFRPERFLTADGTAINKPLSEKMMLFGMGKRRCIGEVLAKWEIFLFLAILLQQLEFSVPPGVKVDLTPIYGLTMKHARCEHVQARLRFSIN

T9 sequence (P34972 whole entry): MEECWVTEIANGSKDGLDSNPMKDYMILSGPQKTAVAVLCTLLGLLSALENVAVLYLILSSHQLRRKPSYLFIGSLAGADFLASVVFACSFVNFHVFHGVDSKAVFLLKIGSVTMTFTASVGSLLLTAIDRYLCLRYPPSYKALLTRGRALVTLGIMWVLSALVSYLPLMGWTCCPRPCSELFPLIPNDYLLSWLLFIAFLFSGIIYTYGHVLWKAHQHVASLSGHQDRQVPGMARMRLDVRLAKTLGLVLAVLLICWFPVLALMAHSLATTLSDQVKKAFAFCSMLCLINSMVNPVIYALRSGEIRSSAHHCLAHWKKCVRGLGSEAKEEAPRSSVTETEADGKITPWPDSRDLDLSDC
T6 sequence (Q00975 whole entry): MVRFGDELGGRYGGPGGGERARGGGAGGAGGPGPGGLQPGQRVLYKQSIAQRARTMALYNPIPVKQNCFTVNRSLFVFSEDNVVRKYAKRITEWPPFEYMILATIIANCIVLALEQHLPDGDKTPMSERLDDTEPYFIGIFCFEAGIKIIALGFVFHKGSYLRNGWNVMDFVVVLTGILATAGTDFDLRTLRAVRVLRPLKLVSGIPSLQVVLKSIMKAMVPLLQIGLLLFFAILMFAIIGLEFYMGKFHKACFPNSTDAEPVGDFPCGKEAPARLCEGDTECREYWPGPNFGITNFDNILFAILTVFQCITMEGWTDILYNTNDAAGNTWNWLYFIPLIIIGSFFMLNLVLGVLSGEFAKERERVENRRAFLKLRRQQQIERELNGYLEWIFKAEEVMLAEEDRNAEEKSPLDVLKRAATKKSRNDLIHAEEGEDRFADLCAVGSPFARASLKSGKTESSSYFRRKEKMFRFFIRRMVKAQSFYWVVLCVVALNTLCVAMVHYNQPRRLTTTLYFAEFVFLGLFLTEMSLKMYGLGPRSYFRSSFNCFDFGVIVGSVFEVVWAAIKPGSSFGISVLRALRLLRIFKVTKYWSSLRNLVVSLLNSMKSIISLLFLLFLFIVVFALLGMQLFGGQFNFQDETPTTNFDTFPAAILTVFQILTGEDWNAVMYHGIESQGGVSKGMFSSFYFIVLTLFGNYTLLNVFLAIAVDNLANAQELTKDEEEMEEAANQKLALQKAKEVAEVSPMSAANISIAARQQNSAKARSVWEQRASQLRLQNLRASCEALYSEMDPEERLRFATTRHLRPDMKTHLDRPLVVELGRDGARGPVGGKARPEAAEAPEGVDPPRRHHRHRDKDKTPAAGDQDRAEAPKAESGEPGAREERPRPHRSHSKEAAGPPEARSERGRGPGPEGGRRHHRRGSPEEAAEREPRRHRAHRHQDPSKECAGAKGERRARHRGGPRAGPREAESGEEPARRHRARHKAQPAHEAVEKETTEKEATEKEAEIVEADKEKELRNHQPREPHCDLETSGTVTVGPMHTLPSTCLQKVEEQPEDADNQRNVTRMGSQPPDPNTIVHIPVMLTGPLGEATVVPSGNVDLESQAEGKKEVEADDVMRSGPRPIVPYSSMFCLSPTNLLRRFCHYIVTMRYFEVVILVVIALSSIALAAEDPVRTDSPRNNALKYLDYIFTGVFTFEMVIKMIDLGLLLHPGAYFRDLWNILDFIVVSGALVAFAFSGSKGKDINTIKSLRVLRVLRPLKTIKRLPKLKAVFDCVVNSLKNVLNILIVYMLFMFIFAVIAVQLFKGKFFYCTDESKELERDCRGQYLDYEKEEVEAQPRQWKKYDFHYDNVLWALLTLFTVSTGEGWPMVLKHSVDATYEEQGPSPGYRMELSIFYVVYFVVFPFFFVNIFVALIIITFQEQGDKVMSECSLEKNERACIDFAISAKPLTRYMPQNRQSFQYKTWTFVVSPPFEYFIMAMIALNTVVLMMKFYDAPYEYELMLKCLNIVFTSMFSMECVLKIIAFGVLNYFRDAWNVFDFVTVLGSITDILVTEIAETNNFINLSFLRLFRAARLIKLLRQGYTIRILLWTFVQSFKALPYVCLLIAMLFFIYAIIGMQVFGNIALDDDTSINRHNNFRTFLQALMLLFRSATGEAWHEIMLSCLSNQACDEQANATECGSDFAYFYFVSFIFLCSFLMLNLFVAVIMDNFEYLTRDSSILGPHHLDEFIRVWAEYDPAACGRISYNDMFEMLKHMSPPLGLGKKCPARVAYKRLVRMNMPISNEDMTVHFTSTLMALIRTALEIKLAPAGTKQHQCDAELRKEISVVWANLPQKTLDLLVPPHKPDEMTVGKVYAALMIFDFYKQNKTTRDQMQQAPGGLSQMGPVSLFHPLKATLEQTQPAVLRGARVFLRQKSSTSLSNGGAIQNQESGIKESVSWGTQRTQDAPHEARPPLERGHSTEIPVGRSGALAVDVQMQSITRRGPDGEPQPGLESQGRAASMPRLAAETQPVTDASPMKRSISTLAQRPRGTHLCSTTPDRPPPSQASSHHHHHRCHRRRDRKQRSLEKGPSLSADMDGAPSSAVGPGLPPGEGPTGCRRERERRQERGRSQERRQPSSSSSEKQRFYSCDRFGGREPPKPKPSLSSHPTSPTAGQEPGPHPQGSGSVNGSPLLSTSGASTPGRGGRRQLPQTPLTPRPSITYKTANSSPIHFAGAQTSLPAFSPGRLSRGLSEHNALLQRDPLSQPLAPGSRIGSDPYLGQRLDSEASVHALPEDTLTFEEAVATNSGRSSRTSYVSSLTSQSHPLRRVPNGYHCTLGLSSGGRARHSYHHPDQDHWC
T6 sequence (Q02410 whole entry): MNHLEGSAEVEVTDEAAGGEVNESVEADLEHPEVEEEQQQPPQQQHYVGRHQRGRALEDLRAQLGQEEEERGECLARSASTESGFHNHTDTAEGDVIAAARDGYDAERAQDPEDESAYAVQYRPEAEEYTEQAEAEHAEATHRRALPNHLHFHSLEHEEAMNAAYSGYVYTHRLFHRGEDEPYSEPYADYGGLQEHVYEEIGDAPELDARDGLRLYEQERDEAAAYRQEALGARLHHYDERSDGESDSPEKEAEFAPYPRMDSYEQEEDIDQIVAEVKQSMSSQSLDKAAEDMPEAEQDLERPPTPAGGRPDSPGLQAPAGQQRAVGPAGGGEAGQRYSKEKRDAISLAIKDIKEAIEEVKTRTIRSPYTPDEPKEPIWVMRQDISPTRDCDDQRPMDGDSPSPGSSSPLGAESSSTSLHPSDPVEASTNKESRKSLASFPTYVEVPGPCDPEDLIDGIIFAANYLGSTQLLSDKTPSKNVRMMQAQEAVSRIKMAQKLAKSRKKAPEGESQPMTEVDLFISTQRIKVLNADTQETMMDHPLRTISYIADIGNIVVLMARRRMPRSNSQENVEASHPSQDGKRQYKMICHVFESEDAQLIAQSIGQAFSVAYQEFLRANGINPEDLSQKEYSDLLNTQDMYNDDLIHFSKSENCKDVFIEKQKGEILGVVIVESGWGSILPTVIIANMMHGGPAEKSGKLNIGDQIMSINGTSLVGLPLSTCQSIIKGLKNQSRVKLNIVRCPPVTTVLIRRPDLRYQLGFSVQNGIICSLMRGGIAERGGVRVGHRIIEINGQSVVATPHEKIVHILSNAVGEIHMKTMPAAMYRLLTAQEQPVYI
T7 sequence (P41145 whole entry): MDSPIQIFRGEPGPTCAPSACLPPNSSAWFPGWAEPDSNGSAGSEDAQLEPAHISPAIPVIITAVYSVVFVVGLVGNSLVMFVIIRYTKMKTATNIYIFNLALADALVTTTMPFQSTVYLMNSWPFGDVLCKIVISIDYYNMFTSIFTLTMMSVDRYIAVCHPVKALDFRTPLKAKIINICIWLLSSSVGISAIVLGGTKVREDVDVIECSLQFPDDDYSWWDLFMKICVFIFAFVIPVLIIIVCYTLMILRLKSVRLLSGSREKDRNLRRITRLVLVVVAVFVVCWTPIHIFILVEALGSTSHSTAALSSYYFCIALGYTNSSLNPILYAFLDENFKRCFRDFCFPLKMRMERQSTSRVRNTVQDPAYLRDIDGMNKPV
T4 sequence (P51452 whole entry): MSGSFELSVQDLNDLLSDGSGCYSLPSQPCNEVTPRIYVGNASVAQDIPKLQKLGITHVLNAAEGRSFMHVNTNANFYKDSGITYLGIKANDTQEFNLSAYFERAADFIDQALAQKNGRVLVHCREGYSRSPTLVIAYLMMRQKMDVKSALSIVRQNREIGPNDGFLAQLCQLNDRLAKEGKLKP
T8 sequence (P41143 whole entry): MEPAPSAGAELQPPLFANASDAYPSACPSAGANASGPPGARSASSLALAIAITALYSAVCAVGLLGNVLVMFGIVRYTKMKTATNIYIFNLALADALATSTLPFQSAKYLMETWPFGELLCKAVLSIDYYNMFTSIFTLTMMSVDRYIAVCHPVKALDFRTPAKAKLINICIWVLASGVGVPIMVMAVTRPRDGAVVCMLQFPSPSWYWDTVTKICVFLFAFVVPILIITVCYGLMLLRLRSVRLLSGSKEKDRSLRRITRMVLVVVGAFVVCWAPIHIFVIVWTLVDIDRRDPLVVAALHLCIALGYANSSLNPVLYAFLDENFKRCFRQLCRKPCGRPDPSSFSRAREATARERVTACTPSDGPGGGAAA
Sequence of Tumor necrosis factor (P01375 whole entry): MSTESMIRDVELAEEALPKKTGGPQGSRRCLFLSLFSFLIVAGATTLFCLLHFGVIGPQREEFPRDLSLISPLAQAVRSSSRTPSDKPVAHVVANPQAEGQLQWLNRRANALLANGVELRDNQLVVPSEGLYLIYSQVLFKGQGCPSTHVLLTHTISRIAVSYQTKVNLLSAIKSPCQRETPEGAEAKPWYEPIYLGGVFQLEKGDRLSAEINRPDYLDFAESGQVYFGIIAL
Sequence of G-protein coupled receptor 55 (Q9Y2T6 whole entry): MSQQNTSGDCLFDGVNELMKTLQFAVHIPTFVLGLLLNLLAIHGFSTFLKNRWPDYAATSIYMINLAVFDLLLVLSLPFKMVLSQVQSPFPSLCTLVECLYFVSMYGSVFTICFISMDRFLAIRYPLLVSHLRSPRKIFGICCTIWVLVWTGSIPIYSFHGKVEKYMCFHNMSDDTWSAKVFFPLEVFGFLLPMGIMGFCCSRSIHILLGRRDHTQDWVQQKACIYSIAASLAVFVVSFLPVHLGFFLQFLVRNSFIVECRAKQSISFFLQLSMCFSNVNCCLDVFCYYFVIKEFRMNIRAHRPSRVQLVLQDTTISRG

CCOC(=O)N1C(=O)C2(CCCCC2)N(c2ccc(C)cc2)C1=S
EC50 [1]: > 285 µM (inactive)

O=C(N/N=C/c1cc([N+](=O)[O-])cc([N+](=O)[O-])c1O)C(O)(c1ccccc1)c1ccccc1
AC50 [2]: 3.47 µM (active)
IC50 (Fatty acid synthase [3]): 16.1 µM (active)
IC50 (Fatty acid synthase [4]): 8.77 µM (active)
AC50 [5]: 2 µM (active)

CCOC(=O)C1=C(C)N=c2s/c(=C/c3ccc(OCC(=O)O)cc3)c(=O)n2C1c1ccc(SC)cc1 (centres undefined)
IC50 [6]: 9.18 µM (active)
IC50 [7]: 72.6 µM (active)
IC50 [8]: > 50 µM (inactive)
IC50 [9]: 6.94 µM (active)
IC50 [10]: 10.4 µM (active)

O=C(c1ccccc1)c1nn(-c2ccccc2)c(=O)cc1C(F)(F)F
AC50 (Cytochrome P450 2D6): inconclusive

CC(Oc1ccc(Br)cc1)C(=O)Nc1nc(-c2ccccn2)cs1 (centres undefined)
IC50 [11]: 5.42 µM (active)
IC50 [12]: > 32 µM (inactive)
IC50 (H9c2): > 79 µM (inactive)
CC50 (Vero [13]): 9.95 µM (active)
IC50 (Vero [14]): > 25 µM (active)
IC50 [15]: > 32 µM
EC50 [16]: > 32 µM (inactive)
EC50 (Beta-galactosidase): > 31.5 µM (inactive)
EC50 (Streptococcus): 2.24 µM (active)
EC50 [17]: 5.27 µM (active)
EC50 (Mu-type opioid receptor): > 32 µM (inactive)
EC50 [18]: 0.909 µM (active)
EC50 [19]: 0.211 µM (active)

CCCN(CCC)Cc1c(C(=O)NN=C/C(C)=C\c2ccccc2)nnn1-c1nonc1N
IC50 (Cannabinoid receptor 1): > 32 µM (inactive)
EC50 (Cannabinoid receptor 2 [20]): > 32 µM (inactive)
EC50 [21]: 0.325 µM (active)
IC50 (Cannabinoid receptor 2 [22]): > 32 µM (inactive)

Nc1nc2ccccc2n1S(=O)(=O)c1ccc(C(F)(F)F)cc1
IC50 [23]: 0.955 µM (active)
IC50 [24]: > 20 µM (inactive)
IC50 (Tumor necrosis factor): > 20 µM (inactive)
IC50 (HEK293): > 20 µM (inactive)

C=C[C@H]1C[N@@]2CC[C@H]1C[C@@H]2[C@@H](O)c1ccnc2ccc(OC)cc12 [QUINIDINE]
AC50 (Cytochrome P450 2C9): inactive
AC50 (Cytochrome P450 1A2): inactive
